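Five concentrations, 48 hours, 96-well plates. Here, GI50 denotes the concentration required for 50% inhibition of growth.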 Active and inactive are the calls of the source. No stated cut-off is given here; in the data, active = GI50 up to about 1.1 µM and inactive = higher.

Common to all, as to assay: DTP human tumour cell line panel, 48 h
In test [1] the test system is COLO 205.
The test system of test [2] is HCT-116.
For test [3], the system named is MDA-N.
Test [4] deals with MOLT-4.
The test system of test [5] is NCI-H226.
Test [6] relates to NCI-H522.
In test [7] the test system is NCI/ADR-RES.
In test [8] the test system is RPMI-8226.
Test [9] concerns SF-268.
The subject of test [10] is SF-295.
The subject of test [11] is SK-MEL-28.
Test [12] deals with SNB-19.
Test [13] relates to SNB-75.
The subject of test [14] is SR.
For test [15], the system named is SW-620.
Test [16] has as its system T47D.
Test [17] relates to UACC-62.
The subject of test [18] is UO-31.
Test [19] has as its system DU-145.
Test [20] deals with HCC 2998.

With `c1ccc(CNCCN2CCNCC2)nc1`, the GI50 in test [1], in test [2], in [3], in [4], in test [5] and in test [6] was > 100 µM (inactive) in each case. Moreover, the GI50 in test [7], in test [8], in test [9], in test [10], in test [11] and in test [12] was > 100 µM (inactive) in each case. Also, the GI50 (as a rule, the concentration that inhibits growth by half) was 52 µM (inactive) in [13]; > 100 µM (inactive) in [14]; > 100 µM (inactive) in test [15]; > 100 µM (inactive) in [16]; > 100 µM (inactive) in test [17]; > 100 µM (inactive) in test [18].

For `Nc1nnnn1CCO`, the GI50 in [1], in test [19], in [2], in test [3], in test [5] and in test [6] was > 100 µM (inactive) throughout. Further, the GI50 in test [7], in test [8], in test [9], in test [10], in test [11] and in test [12] was > 100 µM (inactive) throughout. Also, the GI50 in test [13], in [15], in test [16], in test [17] and in [18] was > 100 µM (inactive) each time.

Consider `O=C1NC(=O)C2(CCCCCC2)N1`, for which the GI50 in test [1], in [19], in [2], in test [3], in test [4] and in [5] was > 100 µM (inactive) in each case. In addition, the GI50 in [6], in test [7], in test [8], in test [9], in [10] and in [11] was > 100 µM (inactive) throughout. For the same compound, the GI50 in [12], in test [13], in test [15], in [16], in test [17] and in test [18] was > 100 µM (inactive) in each case.

Take `CCOC(=O)c1c(C)n(Cc2ccccc2)c2c1cc(O)c1[nH]c3c(c12)CCCC3`: the GI50 in test [1] is 5.85 µM (inactive); in [19] it was 12.6 µM (inactive); in [2], 6.1 µM (inactive); in test [3] it was 13.6 µM (inactive); in test [4], 2.43 µM (inactive); in [6], 1.16 µM (inactive). Moreover, the GI50 in [7] was 4.72 µM (inactive); in test [8], 2.14 µM (inactive); in test [9], 1.81 µM (inactive); in test [10], 3.37 µM (inactive); in test [11], 5.18 µM (inactive); in [12], 3.03 µM (inactive). In addition, the GI50 was 3.65 µM (inactive) in test [15], 2.03 µM (inactive) in test [16], 1.9 µM (inactive) in test [17] and 2.58 µM (inactive) in test [18].

As for `Cc1nn(C(=O)Cc2ccccc2)c2c1C(c1ccc(N(C)C)cc1)SC(=N)N2` (stereo not drawn), the GI50 in [1], in test [19], in [20], in [2], in test [3] and in [4] was > 100 µM (inactive) throughout. Also, the GI50 was > 100 µM (inactive) in test [5]; > 100 µM (inactive) in test [6]; > 100 µM (inactive) in [8]; > 100 µM (inactive) in test [9]; 48.8 µM (inactive) in test [10]; > 100 µM (inactive) in test [11]. The GI50 in test [12] was > 100 µM (inactive); in test [13], 12.4 µM (inactive); in test [14], > 100 µM (inactive); in test [15], > 100 µM (inactive); in test [16] it was > 100 µM (inactive); in [17] it was 45.6 µM (inactive). The GI50 in test [18] is > 100 µM (inactive).

For `Nc1cccc(OCC2CCCN3CCCCC23)c1` (stereo not drawn), the GI50 in test [1] is 19.5 µM (inactive); in test [19] it was 17.5 µM (inactive); in test [20] it was 13.7 µM (inactive); in test [2], 16.3 µM (inactive); in [3], 16 µM (inactive); in [4], 20.9 µM (inactive). In addition, the GI50 was 41.7 µM (inactive) in test [5]; 19.3 µM (inactive) in test [7]; 15.2 µM (inactive) in test [8]; 20.1 µM (inactive) in test [9]; 17.8 µM (inactive) in test [10]; 19.1 µM (inactive) in [11]. For the same compound, the GI50 in test [12] was 17.9 µM (inactive); in [13], 16.7 µM (inactive); in test [15] it was 21.3 µM (inactive); in test [16] it was 17.8 µM (inactive); in test [17], 17.1 µM (inactive); in [18], 27.2 µM (inactive).

As to `Cc1nc(C)c(N2CCN(S(N)(=O)=O)CC2)c(O)n1`, the GI50 in [1], in test [19], in test [20], in test [2], in test [4] and in test [5] was > 100 µM (inactive) in each case. In addition, the GI50 in test [6], in [7], in test [8], in test [9], in test [10] and in test [11] was > 100 µM (inactive) throughout. Also, the GI50 was > 100 µM (inactive) in test [12]; 0.101 µM (active) in [13]; > 100 µM (inactive) in test [14]; > 100 µM (inactive) in test [15]; > 100 µM (inactive) in test [16]; > 100 µM (inactive) in test [17]. For the same compound, the GI50 in test [18] is > 100 µM (inactive).

Regarding `CN(C)CCOC(=O)c1ccc(N)cc1`, the GI50 is 67.3 µM (inactive) in test [1]; 71.6 µM (inactive) in [19]; 16 µM (inactive) in [20]; 54.7 µM (inactive) in test [2]; 36.6 µM (inactive) in test [3]; 28.2 µM (inactive) in test [4]. The GI50 in test [5] is 21.5 µM (inactive); in test [6], 20.4 µM (inactive); in test [7] it was 51.2 µM (inactive); in test [8], 24.4 µM (inactive); in [9] it was 41.6 µM (inactive); in [10], 47.8 µM (inactive). The GI50 is 29.1 µM (inactive) in test [11]; 56.5 µM (inactive) in [12]; 64.4 µM (inactive) in test [15]; 58.5 µM (inactive) in [16]; 36.8 µM (inactive) in test [17]; 33.8 µM (inactive) in [18].

The values are drawn from ChEMBL document CHEMBL1201862, “PubChem BioAssay data set” (2004).
